Like-named read-outs stand apart in the source and are kept apart here.
Columns and labels:
SD rats [1] = conditions: rat, in vivo; for MLD: iv
SD rats [2] = experiment: TC-ED50 after single intravenous injection (Table 2; method not described); assay type: in vivo
SD rats [3] = experiment: animal or person; assay type: in vivo; conditions: iv; for Minimal effective analgesic dose / Minimal effective anesthetic dose / Onset time / Righting feflex duration / Sedation Duration: rat, in vivo; for minimal effective dose: Rattus norvegicus
[4] = read-out: Minimal effective anesthetic dose
[5] = read-out: Minimal effective analgesic dose

SMILES	TI (SD rats [1])	MLD (SD rats [1]) [mg/kg]	TC-ED50 (SD rats [2]) [mg/kg]	Minimal effective analgesic dose (SD rats [3]) [mg/kg]	Minimal effective anesthetic dose (SD rats [3]) [mg/kg]	Onset time (SD rats [3]) [min]	Righting feflex duration (SD rats [3]) [min]	Sedation Duration (SD rats [3]) [min]	TI (SD rats [1]; SD)	MLD (SD rats [1]; SD) [mg/kg]	minimal effective dose (SD rats [3]; [4]) [mg/kg]	minimal effective dose (SD rats [3]; [5]) [mg/kg]
Cc1cnc2n1-c1ccc(Br)cc1C(c1ccccn1)=NC2COC(=O)C(C)C (stereo not shown) [Compound 97]	15.0	30	9.9	10	2.0	0.4 to 0.7	0.7 to 129.9	16.9 to 187.5	–	–	–	–
CC(=O)OCCC1N=C(c2ccccn2)c2cc(Br)ccc2-n2c(C)cnc21 (stereo not shown) [Compound 145]	6.0	30	–	20	5.0	0.2 to 0.4	0.5 to 14.3	33.1 to 88.2	–	–	–	–
CN(C)C(=O)OCCN1N=C(c2ccccn2)c2cc(Br)ccc2N(C)C1=O [Compound 304]	–	–	–	–	–	0.18 to 0.57	1.92 to 5.35	10.57 to 18.57	4	20	5	–
CCC(C)OC(=O)CN1N=C(c2ccccn2)c2cc(Br)ccc2N(C)C1=O (stereo not shown) [Compound 241]	–	–	–	–	–	0.43 to 0.90	3.47 to 30.13	18.10 to 73.95	4	30	7.5	–
Cc1cnc2n1-c1ccc(Br)cc1C(c1ccccn1)=NN2COC(=O)C(C)C [Compound 318]	–	–	–	–	–	0.52 to 0.63	0.58 to 10.53	24.95 to 35.65	>2	>10	5	–
Cc1cnc2n1-c1ccc(Br)cc1C(c1ccccn1)=NC2CCOC(=O)C(C)C (stereo not shown) [Compound 146]	5.0	5	–	–	1.0	0.3 to 0.6	3.7 to 9.7	17.3 to 27.1	–	–	–	–
C=C1N=C(c2ccccn2)c2cc(Br)ccc2N(C)C1=O [Compound 36]	1.9	18.7	–	–	10.0	0.4 to 0.9	0.7 to 4.1	8.6 to 14.7	–	–	–	–
CCOC(=O)CN1N=C(c2ccccn2)c2cc(Br)ccc2-n2c(C)cnc21 [Compound 307]	–	–	–	–	–	0.27 to 0.73	0.90 to 4.27	20.87 to 32.75	>1.7	>15.15	8.75	–
Cc1cnc2n1-c1ccc(Br)cc1C(c1ccccn1)=NC2CCOC(=O)CCl (stereo not shown) [Compound 148]	33.3	60	–	–	1.8	0.2 to 1.1	1.0 to 60.8	20.1 to 82.4	–	–	–	–
CN1C(=O)N(COC(=O)CCCl)N=C(c2ccccn2)c2cc(Br)ccc21 [Compound 290]	–	–	–	–	–	0.45	6.63	18.08	1.3	20	15	15
C=CC(C)(C)OC(=O)CCC1N=C(c2cccc[n+]2[O-])c2cc(Br)ccc2N(C)C1=O (stereo not shown) [Compound 20]	>1.5	>22.5	–	–	15.0	0.3 to 0.5	4.1 to 6.4	17.0 to 20.3	–	–	–	–
C=CC(C)OC(=O)CN1N=C(c2ccccn2)c2cc(Br)ccc2-n2c(C)cnc21 (stereo not shown) [Compound 310]	–	–	–	–	–	0.15 to 0.52	2.97 to 38.32	138.40 to 240	4	40	10	20
CCOC(=O)CN1N=C(c2ccccn2)C(Br)=CN(C)C1=O [Compound 346]	–	–	–	–	–	0.57	2.63	45.10	>1	>18.4	18.4	18.4
Cc1cnc2n1-c1ccc(Br)cc1C(c1ccccn1)=NN2CC(=O)OC1COC1 [Compound 311]	–	–	–	–	–	0.17 to 0.48	2.28 to 12.30	25.88 to 54.23	6	30	5	10
CN1C(=O)N(CCOC(=O)CCl)N=C(c2ccccn2)c2cc(Br)ccc21 [Compound 300]	–	–	–	–	–	0.25	4.67	76.20	>1	>40	40	–
C#C[C@H](C)OC(=O)CN1N=C(c2ccccn2)c2cc(Br)ccc2N(C)C1=O [Compound 252]	–	–	–	–	–	0.43	2.92 to 5.05	9.95 to 10.58	2	40	20	30

SMILES	TI (SD rats [1])	MLD (SD rats [1]) [mg/kg]	TC-ED50 (SD rats [2]) [mg/kg]	Minimal effective analgesic dose (SD rats [3]) [mg/kg]	Minimal effective anesthetic dose (SD rats [3]) [mg/kg]	Onset time (SD rats [3]) [min]	Righting feflex duration (SD rats [3]) [min]	Sedation Duration (SD rats [3]) [min]	TI (SD rats [1]; SD)	MLD (SD rats [1]; SD) [mg/kg]	minimal effective dose (SD rats [3]; [4]) [mg/kg]	minimal effective dose (SD rats [3]; [5]) [mg/kg]
CN1C(=O)C(CO)N=C(c2ccccn2)c2cc(Br)ccc21 (stereo not shown) [Compound 37]	>2.0	>10	–	–	5.0	0.3 to 0.6	0.7 to 5.8	15.3 to 21.3	–	–	–	–
CC(C)C(C)OC(=O)CN1N=C(c2ccccn2)c2cc(Br)ccc2N(C)C1=O (stereo not shown) [Compound 249]	–	–	–	–	–	0.50 to 0.62	6.55 to 13.37	23.30 to 42.37	2	20	10	15
CCC(C)(C)OC(=O)CN1N=C(c2ccccn2)c2cc(Br)ccc2-n2c(C)cnc21 [Compound 313]	–	–	–	–	–	0.53 to 0.97	12.27 to 13.62	43.43 to 66.15	2	30	15	20
C=CC1(OC(=O)CN2N=C(c3ccccn3)c3cc(Br)ccc3N(C)C2=O)COC1 [Compound 254]	–	–	–	–	–	0.60 to 0.65	0.78 to 3.10	29.25 to 40.22	2	20	10	–
CCOC(=O)CN1N=C(c2ccccn2)C(Cl)=CN(C)C1=O [Compound 348]	–	–	–	–	–	0.75	2.03	116.72	>1	>20	20	–
CN1C(=O)N(CC(=O)OC2(C)COC2)N=C(c2ccccn2)c2cc(Br)ccc21 [Compound 253]	–	–	–	–	–	0.87 to 0.88	1.38 to 11.07	10.13 to 31.28	3	30	10	20
CN1C(=O)N(CC(=O)OC2CC2)N=C(c2ccccn2)c2cc(Br)ccc21 [Compound 244]	–	–	–	–	–	0.15 to 0.18	0.78 to 3.85	11.42 to 18.83	2.7	40	15	–
CN(C)C(=O)OCN1N=C(c2ccccn2)c2cc(Br)ccc2N(C)C1=O [Compound 291]	–	–	–	–	–	0.65 to 0.92	2.03 to 5.98	–	2	30	15	15
Cc1cnc2n1-c1ccc(Br)cc1C(c1ccccn1)=NC2CCOC(=O)N(C)C (stereo not shown) [Compound 156]	11.1	20	–	–	1.8	0.2 to 0.4	1.7 to 31.9	9.3 to 91.5	–	–	–	–
CC(=O)C(C)(C)OC(=O)CCC1N=C(c2ccccn2)c2cc(Br)ccc2N(C)C1=O (stereo not shown) [Compound 18]	>2.4	>1.2	–	–	0.5	0.2 to 0.9	0.8 to 4.2	4.5 to 10.7	–	–	–	–
CC(C)OC(=O)CC1N=C(c2ccccn2)c2cc(Br)ccc2N(C)C1=O (stereo not shown) [Compound 114]	40.0	20	–	–	0.5	0.4 to 1.1	0.8 to 27.6	16.5 to 140.3	–	–	–	–
CC(=O)OCCC1N=C(c2ccccn2)c2cc(Br)ccc2-n2c(C)cnc21.O=S(=O)(O)c1ccccc1 (stereo not shown) [Compound 145D]	>2.3	>16.9	–	–	7.5	0.2 to 0.5	1.7 to 19.9	23.0 to 63.0	–	–	–	–
CCC(=O)OCCC1N=C(c2ccccn2)c2cc(Br)ccc2-n2c(C)cnc21 (stereo not shown) [Compound 147]	6.0	15	–	–	2.5	0.2 to 0.5	–	27.0 to 48.7	–	–	–	–
CC(=O)C(C)(C)OC(=O)CCC1N=C(c2ccccn2)c2cc(Br)ccc2-n2c(C)cnc21 (stereo not shown) [Compound 6]	>3.8	>5	–	–	1.3	0.3 to 0.8	0.6 to 3.4	4.0 to 10.7	–	–	–	–
CC(C)C(=O)OCN1N=C(c2ccccn2)c2cc(Br)ccc2N(C)C1=O [Compound 287]	–	–	–	–	–	0.32 to 0.43	0.63 to 7.53	44.20 to 46.25	3	30	10	–
